What was measured:
[1] = tested on: SiHa human HPV16-positive cervical cancer cells; assay: Cell-derived xenograft mouse model for cervical cancer (SiHa CDX); type: in vivo; settings: p.o.; for Tumor Size day 37: SiHa CDX, female BALB/c nude mice, Mean ± SEM; for T/C: day 37, tumor-to-control ratio (volume/volume)
Method: (§1) Female BALB/c nude mice (7-9 weeks of age) were injected with SiHa human HPV16-positive (Human Papillomavirus type 16) cervical cancer cells. The cells were inoculated subcutaneously into the left flank of 48 mice. When tumors reached a mean volume of approximately 111 mm^3, mice were randomly assigned to eight treatment groups of each six mice (TABLE 18). Body weights were measured three times weekly prior to the initiation of dosing and daily thereafter. Tumor burden was assessed by caliper measurement twice weekly. Dosing breaks were applied when tolerability issues arose (body weight loss>10%). The study was terminated four weeks post first dosing. The experiment was performed in the Crown Bioscience Ltd. (Beijing) testing facility (Ground Floor, Light Muller Building, Changping Sector of Zhongguancun Scientific Park, No. 21 Huoju Road, Changping District, Beijing, CHIN).

[2] = tested on: HPV-positive head-and-neck squamous cell carcinoma model #HN10309; assay: Patient-derived xenograft mouse model for head-and-neck squamous cell carcinoma (HN10309); type: in vivo; settings: p.o. BID, 30 mg/kg, female NMRI nu/nu mice
Method: Female NMRI nu/nu mice were injected with cells derived from a human head-and-neck cancer (model #HN10309, an HPV-positive head-and-neck squamous cell carcinoma, EPO-GmbH, Berlin, Germany). The cells were inoculated subcutaneously into the left flank of 24 mice. Thirty-three days later tumors reached a mean volume of approximately 116 mm^3, and mice were randomly assigned to three treatment groups of each eight mice (TABLE 21). Body weights were measured twice weekly. Tumor burden was assessed by caliper measurement twice weekly. Dosing breaks were applied when tolerability issues arose (body weight loss>[…]). The study was terminated four weeks post first dosing. The experiment was performed in the EPO animal testing facility (Experimental Pharmacology and Oncology GmbH, 13125 Berlin-Buch, Germany).

[3] = tested on: HPV-positive head-and-neck squamous cell carcinoma model #HN11303; assay: Patient-derived xenograft mouse model for head-and-neck squamous cell carcinoma (HN11303); type: in vivo; settings: for mean TV: subcutaneous HPV-positive HNSCC model, female NMRI nu/nu mice; for mice tumor-free at the end of the observation period: HN11303 PDX, variable dosages (TABLE 23), all sixteen mice of the two groups
Method: Female NMRI nu/nu mice were injected with cells derived from a human head-and-neck cancer (model #HN11303, an HPV-positive head-and-neck squamous cell carcinoma, EPO-GmbH, Berlin, Germany). The cells were inoculated subcutaneously into the left flank of 40 mice. Thirteen days later tumors reached a mean volume of approximately 107 mm^3, and mice were randomly assigned to five treatment groups of each eight mice (TABLE 23). Body weights were measured twice weekly. Tumor burden was assessed by caliper measurement twice weekly. Dosing breaks were applied when tolerability issues arose (body weight loss>10). The study was terminated five weeks post first dosing. The experiment was performed in the EPO animal testing facility (Experimental Pharmacology and Oncology GmbH, 13125 Berlin-Buch, Germany).

[4] = tested on: patient-derived castration-resistant prostate tumor cells (model #PR6511); assay: Castration resistant prostate cancer patient-derived xenograft (CRPC PDX); type: in vivo, mouse
Method: NSG NOD.Cg-PrkdcscidIj2rgtm1Wjl/SzJ mice (6-8 weeks of age) were injected with patient-derived castration-resistant prostate tumor cells (model #PR6511, Crown Bioscience UK Ltd Hillcrest, Osgathorpe Leicestershire, UK). The cells were inoculated subcutaneously into the left flank of 40 male NSG mice. When tumors reached a mean volume of approximately 100 mm^3 (i.e. 100 mm^3+/−54 mm^3, FIG. 3), mice were randomly assigned to five treatment groups of each eight mice (TABLE 9). Body weights were measured three times weekly prior to the initiation of dosing and daily thereafter. Tumor burden was assessed by caliper measurement three times weekly. Dosing breaks were applied when tolerability issues arose (body weight loss>10). Upon completion of the scheduled dosing phase at day 57, tumor outgrowth was monitored for groups 3, 4 and […] up to study day 77. Groups 1 and 2 were terminated on study day 57. Results of the experiment are shown in TABLES 10 and 11; and FIGS. 3 and 4. The experiment was performed in the Crown Bioscience Ltd. testing facility (Crown Bioscience UK Ltd Hillcrest, Dodgeford Lane, Osgathorpe Leicestershire LE12 9TE, UK).

[5] = tested on: MKN45 human gastric adenocarcinoma cells; assay: Cell-derived xenograft mouse model for gastric cancer (MKN45 CDX); type: in vivo; settings: 12 mg/kg, QW, i.v.
Method: as §1, with “(8-9” for “(7-9”, “MKN45” for “SiHa”, “gastric adenocarcinoma” for “HPV16-positive (Human Papillomavirus type 16) cervical cancer”, “103” for “111”, “16).” for “18).”, “CHN).” for “CHIN).”

[6] = 1 mg/kg, BID, listed as Compound 248
[7] = p.o. QD, 30 mg/kg, groups of eight mice

CC(C)C[C@@H]1NCCN([C@@H](CC(C)C)C(=O)N2CCC3(C[C@@H]2C)OCC(CN2CCC2)CO3)C1=O (stereo partly drawn) [Compound 318, (S)-1-[(S)-1-({(S)-3-[(1-Azetidinyl)methyl]-8-methyl-1,5-dioxa-9-aza-9-spiro[5.5]undecyl}car-bonyl)-3-methylbutyl]-3-isobutyl-2-piperazinone]
Tumor Size day 37 ([1]; 3 mg/kg, BID): 351 ± 68 mm^3 | T/C ([1]; 3 mg/kg, BID): 37.5%

CC(C)C[C@@H]1NCCN([C@@H](CC(C)C)C(=O)N2CCC(CCN3CCC4(CC3)CC4)CC2)C1=O [Compound 282, (S)-1-[(S)-1-[(4-{2-(6-Aza-6-spiro[2.5]octyl)eth-yl}-1-piperidyl)carbonyl]-3-methylbutyl]-3-isobutyl-2-piperazinone]
mean TV ([2]; Day 33): 0.1161 cm^3 | mean TV ([2]; Day 35): 0.1308 cm^3 | mean TV ([2]; Day 38): 0.1751 cm^3 | mean TV ([2]; Day 41): 0.2086 cm^3 | mean TV ([2]; Day 45): 0.3560 cm^3 | mean TV ([2]; Day 49): 0.4920 cm^3 | mean TV ([2]; Day 53): 0.6364 cm^3 | mean TV ([2]; Day 56): 0.6558 cm^3 | mean TV ([3]; day 13): 0.1073 cm^3 | mean TV ([3]; day 15): 0.1061 cm^3 | mean TV ([3]; day 18): 0.1040 cm^3 | mean TV ([3]; day 21): 0.0971 cm^3 | mean TV ([3]; day 25): 0.1111 cm^3 | mean TV ([3]; day 29): 0.1030 cm^3 | mean TV ([3]; day 33): 0.1273 cm^3 | mean TV ([3]; day 36): 0.1185 cm^3

CC(C)C[C@H]1C(=O)N([C@@H](CC(C)C)C(=O)N2CCC3(C[C@@H]2C)OCC(CN2CCCC2)CO3)CCN1C (stereo partly drawn) [Compound 273, (S)-1-[(S)-1-({(S)-8-Methyl-3-[(1-pyrrolidinyl)methyl]-1,5-dioxa-9-aza-9-spiro[5.5]un-decyl}carbonyl)-3-methylbutyl]-3-isobutyl-4-methyl-2-piperazinone]
Tumor Size day 37 ([1]; 3 mg/kg, BID): 942.0 ± 114.9 mm^3 | T/C ([1]; 3 mg/kg, BID): 79.3% | mice tumor-free at the end of the observation period [3]: tumor-free | mean TV ([3]; day 13): 0.1063 cm^3 | mean TV ([3]; day 15): 0.1073 cm^3 | mean TV ([3]; day 18): 0.0948 cm^3 | mean TV ([3]; day 21): 0.0875 cm^3 | mean TV ([3]; day 25): 0.0451 cm^3 | mean TV ([3]; day 29): 0.0194 cm^3 | mean TV ([3]; day 33): 0.0056 cm^3 | mean TV ([3]; day 36): 0.0031 cm^3

CC(C)C[C@@H]1NCCN([C@@H](CC(C)C)C(=O)N2CCC3(C[C@@H]2C)OCC(CN2CCCC2)CO3)C1=O (stereo partly drawn) [Compound 248, (S)-1-[(S)-1-({(S)-8-Methyl-3-[(1-pyrrolidinyl)methyl]-1,5-dioxa-9-aza-9-spiro[5.5]un-decyl}carbonyl)-3-methylbutyl]-3-isobutyl-2-piperazinone]
Tumor Size day 37 [1, 6]: 586 ± 82 mm^3 | T/C [1, 6]: 62.6% | Tumor Size day 37 ([1]; 3 mg/kg, BID): 178 ± 27 mm^3 | T/C ([1]; 3 mg/kg, BID): 19% | Tumor Size day 37 ([1]; 6 mg/kg, QD): 238 ± 37 mm^3 | T/C ([1]; 6 mg/kg, QD): 25.4% | mean TV ([2]; Day 33): 0.1159 cm^3 | mean TV ([2]; Day 35): 0.1248 cm^3 | mean TV ([2]; Day 38): 0.1389 cm^3 | mean TV ([2]; Day 41): 0.1093 cm^3 | mean TV ([2]; Day 45): 0.1794 cm^3 | mean TV ([2]; Day 49): 0.2398 cm^3 | mean TV ([2]; Day 53): 0.2964 cm^3 | mean TV ([2]; Day 56): 0.2569 cm^3 | mice tumor-free at the end of the observation period [3]: tumor-free | mean TV ([3]; day 13): 0.1064 cm^3 | mean TV ([3]; day 15): 0.0958 cm^3 | mean TV ([3]; day 18): 0.0916 cm^3 | mean TV ([3]; day 21): 0.0511 cm^3 | mean TV ([3]; day 25): 0.0499 cm^3 | mean TV ([3]; day 29): 0.0288 cm^3 | mean TV ([3]; day 33): 0.0068 cm^3 | mean TV ([3]; day 36): 0.0041 cm^3

CNC(=O)c1ccc(N2C(=S)N(c3ccc(C#N)c(C(F)(F)F)c3)C(=O)C2(C)C)cc1F [Enzalutamide, enzalutamide, reference compound]
TWO-WAY ANOVA p (tumor size at the end of the study) vs. Vehicle ([4]; 30 mg/kg p.o. QD, n.s. = not significant): n.s. | CR (complete regression) = number of mice [4, 7]: 0 | PR (partial regression) = number of mice [4, 7]: 0 | TFS (Tumor Free Survival) = number of complete regressions recorded up to Group Day End [4, 7]: 0

CC(=O)O[C@H]1C(=O)[C@@]2(C)[C@H]([C@H](OC(=O)c3ccccc3)[C@]3(O)C[C@H](OC(=O)[C@H](O)[C@@H](NC(=O)c4ccccc4)c4ccccc4)C(C)=C1C3(C)C)[C@]1(OC(C)=O)CO[C@@H]1C[C@@H]2O [Paclitaxel, paclitaxel, reference compound]
Tumor Size day 29 ([5]; MKN45 CDX, female BALB/c nude mice, Mean ± SEM): 554.9 ± 52.8 mm^3 | T/C ([5]; day 29, tumor-to-control ratio (volume/volume)): 46.6%

Source: patent US20250115571A1, “OXOPIPERAZINE DERIVATIVES” (Inthera Bioscience AG, priority 2017, published 2025)
